The record followed here is patent US9255101B2 (BIOPROJECT, priority 2012, dated 2016).

Molecules are shown by their SMILES. Where a name gives a salt, the structure may show the parent alone. Some results are limits rather than exact numbers.

The target of assay [1] is T1, human H4 receptor (Homo sapiens, UniProt Q9H3N8). Nature of the assay: biochemical.
The target of assay [2] is T1, human H4 receptor. Kind of assay: biochemical. The source holds these as a separate data set.
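Wherever IC50 is given: membranes from SH-SY5Y cells with stable human H4 receptor expression, incubated with GDP 10 µM, radioactivity retained on filters counted by liquid scintillation.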
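Wherever Ki is given: radioligand displacement of a [3H]-labelled ligand from membranes of CHO cells stably expressing human H4 receptor, bound radioactivity counted on filters by liquid scintillation.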

T1 sequence (Q9H3N8 whole entry): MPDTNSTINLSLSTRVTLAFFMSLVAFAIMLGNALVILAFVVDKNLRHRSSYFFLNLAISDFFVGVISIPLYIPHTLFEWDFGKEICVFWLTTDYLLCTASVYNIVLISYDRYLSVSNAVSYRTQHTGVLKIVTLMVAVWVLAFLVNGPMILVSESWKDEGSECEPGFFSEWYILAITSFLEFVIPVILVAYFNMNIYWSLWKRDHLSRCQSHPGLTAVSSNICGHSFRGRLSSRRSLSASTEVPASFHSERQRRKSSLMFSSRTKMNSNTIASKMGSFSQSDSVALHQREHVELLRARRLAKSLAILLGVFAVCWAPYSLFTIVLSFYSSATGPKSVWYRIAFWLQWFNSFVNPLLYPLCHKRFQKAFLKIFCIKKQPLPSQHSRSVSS

In the case of `CC(=O)c1ccc(-c2cn3c(n2)C(OC2CCN(C)CC2)c2ccccc2CC3)cc1` (centres unmarked) [Example 11, 1-{4-[4-(1-methylpiperidin-4-yloxy)-9,10-dihydro-4H-3,10a-diaza-benzo[f]azulen-2-yl]-phenyl}ethanone], the IC50 in assay [1] was less than 300 nM. Moreover, in assay [2], the Ki is less than 30 nM.
The molecule `CN1CCC(OC2c3ccccc3CCn3cc(-c4ccsc4)nc32)CC1` (centres unmarked) [Example 12, 4-(1-methylpiperidin-4-yloxy)-2-thiophen-3-yl-9,10-dihydro-4H-3,10a-diaza-benzo[f]azulene] gave an IC50 in assay [1] of less than 300 nM. The same molecule returned an inhibitory constant (Ki) in assay [2] of less than 300 nM.
Regarding `CN1CCC(OC2c3ccccc3CCn3cc(-c4ccc(OC(F)(F)F)cc4)nc32)CC1` (centres unmarked) [Example 15, 4-(1-methylpiperidin-4-yloxy)-2-(4-trifluoromethoxyphenyl)-9,10-dihydro-4H-3,10a-diaza-benzo[f]azulene oxalate], in assay [1], the half-inhibitory concentration (IC50) was less than 30 nM. The molecule further registered an inhibition constant Ki in assay [2] of less than 30 nM.
With `CSc1ccc(-c2cn3c(n2)C(OC2CCN(C)CC2)c2ccccc2CC3)cc1` (centres unmarked) [Example 20, 4-(1-methylpiperidin-4-yloxy)-2-(4-methylsulfanylphenyl)-9,10-dihydro-4H-3,10a-diaza-benzo[f]azulene], the IC50 in assay [1] was less than 30 nM. This molecule showed a Ki in assay [2] of less than 30 nM.
In assay [1], `CCc1ccc(-c2cn3c(n2)C(OC2CCN(C)CC2)c2ccccc2CC3)cc1` (centres unmarked) [Example 21, 2-(4-ethylphenyl)-4-(1-methylpiperidin-4-yloxy)-9,10-dihydro-4H-3,10a-diaza-benzo[f]azulene] came in with an IC50 of less than 30 nM. For the same molecule, in assay [2], the Ki is less than 300 nM.
In the case of `CCCc1ccc(-c2cn3c(n2)C(OC2CCN(C)CC2)c2ccccc2CC3)cc1` (centres unmarked) [Example 22, 4-(1-methylpiperidin-4-yloxy)-2-(4-propylphenyl)-9,10-dihydro-4H-3,10a-diaza-benzo[f]azulene], the IC50 in assay [1] was less than 300 nM. This molecule also had a Ki in assay [2] of less than 30 nM.
Regarding `CN1CCC(OC2c3ccccc3CCn3cc(-c4ccc(C(F)(F)F)cc4)nc32)CC1` (centres unmarked) [Example 25, 4-(1-methylpiperidin-4-yloxy)-2-(4-trifluoromethylphenyl)-9,10-dihydro-4H-3,10a-diaza-benzo[f]azulene], the half-maximal inhibitory concentration (IC50) in assay [1] was less than 30 nM. In addition, the Ki in assay [2] is less than 30 nM.
In assay [1], `CN1CCC(OC2c3ccccc3CCn3cc(-c4ccccc4Cl)nc32)CC1` (centres unmarked) [Example 26, 2-(2-chlorophenyl)-4-(1-methylpiperidin-4-yloxy)-9,10-dihydro-4H-3,10a-diaza-benzo[f]azulene oxalate] returned a concentration for half-maximal inhibition (IC50) of less than 300 nM. This molecule also displayed an inhibitory constant (Ki) in assay [2] of less than 30 nM.
For `CN1CCC(OC2c3ccccc3CCn3cc(-c4ccccc4F)nc32)CC1` (centres unmarked) [Example 27, 2-(2-fluorophenyl)-4-(1-methylpiperidin-4-yloxy)-9,10-dihydro-4H-3,10a-diaza-benzo[f]azulene], in that order: less than 300 nM and less than 300 nM.
As to `CN1CCC(OC2c3ccccc3CCn3cc(-c4ccc(S(=O)(=O)N(C)C)cc4)nc32)CC1` (centres unmarked) [Example 29, N,N-dimethyl-4-[4-(1-methylpiperidin-4-yloxy)-9,10-dihydro-4H-3,10a-diaza-benzo[f]azulen-2-yl]-benzenesulfonamide], in assay [1], the IC50 was less than 300 nM. The molecule further registered a Ki in assay [2] of less than 300 nM.
As for `C=CCc1cn2c(n1)C(OC1CCN(C)CC1)c1ccccc1CC2` (centres unmarked) [Example 30, 2-allyl-4-(1-methylpiperidin-4-yloxy)-9,10-dihydro-4H-3,10a-diaza-benzo[f]azulene oxalate], in assay [1], the concentration for half-maximal inhibition (IC50) was less than 300 nM. The inhibition constant (Ki) in assay [2] is less than 300 nM.
For `CN1CCC(OC2c3ccccc3CCn3cc(-c4ccc(C(=O)C(F)(F)F)cc4)nc32)CC1` (centres unmarked) [Example 31, 2,2,2-trifluoro-1-{4-[4-(1-methylpiperidin-4-yloxy)-9,10-dihydro-4H-3,10a-diaza-benzo[f]azulen-2-yl]-phenyl}-ethanone oxalate], the concentration for half-maximal inhibition (IC50) in assay [1] is less than 30 nM. The molecule further showed an inhibition constant Ki in assay [2] of less than 300 nM.
The molecule `CC(C)c1ccc(-c2cn3c(n2)C(OC2CCN(C)CC2)c2ccccc2CC3)cc1` (centres unmarked) [Example 32, 2-(4-isopropylphenyl)-4-(1-methyl-piperidin-4-yloxy)-9,10-dihydro-4H-3,10a-diaza-benzo[f]azulene oxalate] yielded an IC50 in assay [1] of less than 300 nM. For the same molecule, the Ki in assay [2] is less than 300 nM.
Molecule `CN1CCC(OC2c3ccccc3CCn3cc(-c4ccc(CC#N)cc4)nc32)CC1` (centres unmarked) [Example 33, {4-[4-(1-methylpiperidin-4-yloxy)-9,10-dihydro-4H-3,10a-diaza-benzo[f]azulen-2-yl]-phenyl}-acetonitrile oxalate] displayed an IC50 in assay [1] of less than 300 nM. In assay [2], this molecule returned a Ki of less than 300 nM.
In the case of `CN1CCC(OC2c3ccccc3CCn3cc(-c4ccc(C(=O)OC(C)(C)C)cc4)nc32)CC1` (centres unmarked) [Example 36, 4-[4-(1-methylpiperidin-4-yloxy)-9,10-dihydro-4H-3,10a-diaza-benzo[f]azulen-2-yl]-benzoic acid tert-butyl ester], the IC50 in assay [1] is less than 30 nM. In assay [2], this molecule showed a Ki of less than 30 nM.
`CN1CCC(OC2c3ccccc3CCn3cc(-c4ccc(C#N)cc4)nc32)CC1` (centres unmarked) [Example 37, 4-[4-(1-methylpiperidin-4-yloxy)-9,10-dihydro-4H-3,10a-diaza-benzo[f]azulen-2-yl]-benzonitrile] returned a half-inhibitory concentration (IC50) in assay [1] of less than 30 nM. In assay [2], this molecule registered an inhibition constant (Ki) of less than 30 nM.
In the case of `CN1CCC(OC2c3ccccc3CCn3cc(CCc4ccccc4)nc32)CC1` (centres unmarked) [Example 38, 4-(1-methylpiperidin-4-yloxy)-2-phenethyl-9,10-dihydro-4H-3,10a-diaza-benzo[f]azulene oxalate], the IC50 in assay [1] was less than 30 nM. The molecule further showed a Ki in assay [2] of less than 300 nM.
As for `CCCCc1ccc(-c2cn3c(n2)C(OC2CCN(C)CC2)c2ccccc2CC3)cc1` (centres unmarked) [Example 41, 2-(4-butylphenyl)-4-(1-methylpiperidin-4-yloxy)-9,10-dihydro-4H-3,10a-diaza-benzo[f]azulene oxalate], the half-inhibitory concentration (IC50) in assay [1] was less than 300 nM. Besides, in assay [2], the Ki is less than 30 nM.
For `CCCCCc1ccc(-c2cn3c(n2)C(OC2CCN(C)CC2)c2ccccc2CC3)cc1` (centres unmarked) [Example 42, 4-(1-methylpiperidin-4-yloxy)-2-(4-pentylphenyl)-9,10-dihydro-4H-3,10a-diaza-benzo[f]azulene], in assay [1], the IC50 was less than 30 nM. This molecule had an inhibition constant Ki in assay [2] of less than 30 nM.
In assay [1], `CCCCCCc1ccc(-c2cn3c(n2)C(OC2CCN(C)CC2)c2ccccc2CC3)cc1` (centres unmarked) [Example 43, 2-(4-hexylphenyl)-4-(1-methylpiperidin-4-yloxy)-9,10-dihydro-4H-3,10a-diaza-benzo[f]azulene] yielded a 50% inhibitory concentration (IC50) of less than 300 nM. Moreover, in assay [2], the Ki is less than 300 nM.
With `CCSc1ccc(-c2cn3c(n2)C(OC2CCN(C)CC2)c2ccccc2CC3)cc1` (centres unmarked) [Example 46, 2-(4-ethylsulfanylphenyl)-4-(1-methylpiperidin-4-yloxy)-9,10-dihydro-4H-3,10a-diaza-benzo[f]azulene oxalate], the IC50 in assay [1] was less than 30 nM. The same molecule yielded a Ki in assay [2] of less than 30 nM.
In assay [1], `CN1CCC(OC2c3ccccc3CCn3cc(-c4cccs4)nc32)CC1` (centres unmarked) [Example 47, 4-(1-methylpiperidin-4-yloxy)-2-thiophen-2-yl-9,10-dihydro-4H-3,10a-diaza-benzo[f]azulene oxalate] had an IC50 of less than 300 nM. In assay [2], the inhibition constant (Ki) was less than 300 nM.
Molecule `CN1CCC(OC2c3ccccc3CCn3cc(-c4ccc(NC(=O)OC(C)(C)C)cc4)nc32)CC1` (centres unmarked) [Example 49, {4-[4-(1-methylpiperidin-4-yloxy)-9,10-dihydro-4H-3,10a-diaza-benzo[f]azulen-2-yl]-phenyl}-carbamic acid tert-butyl ester] had an IC50 in assay [1] of less than 300 nM. This molecule also gave an inhibition constant (Ki) in assay [2] of less than 30 nM.
On to `CN1CCC(OC2c3ccccc3CCn3cc(-c4ccc5c(c4)OCO5)nc32)CC1` (centres unmarked) [Example 50, 2-benzo[1,3]dioxol-5-yl-4-(1-methylpiperidin-4-yloxy)-9,10-dihydro-4H-3,10a-diaza-benzo[f]azulene], for which the IC50 in assay [1] was less than 1000 nM. In assay [2], this molecule displayed a Ki of less than 30 nM.
For `CN1CCC(OC2c3ccccc3CCn3cc(-c4ccc(F)cc4)nc32)CC1` (centres unmarked) [Example 56, 2-(4-fluorophenyl)-4-(1-methylpiperidin-4-yloxy)-9,10-dihydro-4H-3,10a-diaza-benzo[f]azulene], in that order: less than 30 nM and less than 30 nM.
As for `CN1CCC(OC2c3ccccc3CCn3cc(C4=CCCCC4)nc32)CC1` (centres unmarked) [Example 62, 2-cyclohex-1-enyl-4-(1-methylpiperidin-4-yloxy)-9,10-dihydro-4H-3,10a-diaza-benzo[f]azulene oxalate], the IC50 in assay [1] was less than 300 nM. In assay [2], this molecule came in with a Ki of less than 300 nM.
As to `CN1CCC(OC2c3ccccc3CCn3cc(-c4ccc(C(C)(F)F)cc4)nc32)CC1` (centres unmarked) [Example 64, 2-[4-(1,1-difluoroethyl)-phenyl]-4-(1-methylpiperidin-4-yloxy)-9,10-dihydro-4H-3,10a-diaza-benzo[f]azulene oxalate], the half-maximal inhibitory concentration (IC50) in assay [1] is less than 30 nM. The molecule also returned an inhibitory constant (Ki) in assay [2] of less than 300 nM.
With `CN1CCC(OC2c3ccccc3CCn3cc(C4=CCCC4)nc32)CC1` (centres unmarked) [Example 65, 2-cyclopent-1-enyl-4-(1-methylpiperidin-4-yloxy)-9,10-dihydro-4H-3,10a-diaza-benzo[f]azulene], the half-inhibitory concentration (IC50) in assay [1] was less than 1000 nM. The Ki in assay [2] was less than 300 nM.
For `CN1CCC(OC2c3ccccc3CCn3cc(SCc4ccccc4)nc32)CC1` (centres unmarked) [Example 67, 2-benzylsulfanyl-4-(1-methylpiperidin-4-yloxy)-9,10-dihydro-4H-3,10a-diaza-benzo[f]azulene oxalate], the 50% inhibitory concentration (IC50) in assay [1] was less than 300 nM. The molecule also came in with a Ki in assay [2] of less than 300 nM.
The molecule `CN1CCC(OC2c3ccccc3CCn3cc(-c4cccc(F)c4)nc32)CC1` (centres unmarked) [Example 68, 2-(3-fluorophenyl)-4-(1-methylpiperidin-4-yloxy)-9,10-dihydro-4H-3,10a-diaza-benzo[f]azulene oxalate] gave a concentration for half-maximal inhibition (IC50) in assay [1] of less than 300 nM. This molecule also had an inhibition constant Ki in assay [2] of less than 30 nM.
Molecule `CN1CCC(OC2c3ccccc3CCn3cc(-c4ccc(C(F)F)cc4)nc32)CC1` (centres unmarked) [Example 69, 2-(4-difluoromethylphenyl)-4-(1-methylpiperidin-4-yloxy)-9,10-dihydro-4H-3,10a-diaza-benzo[f]azulene] returned an IC50 in assay [1] of less than 300 nM. The Ki in assay [2] is less than 30 nM.

The term IC50 denotes the concentration that gives 50% inhibition. Low readings indicate inhibition by little substance, high ones a need for much substance. As a reminder, the Ki is the equilibrium dissociation constant of an inhibitor or competing ligand from its target. A higher Ki goes with weaker binding.
